Tests used:
[1] = system: Aβ 1-42 amyloid fibrils; experiment: Thioflavin T fluorometry: disassembly/disruption of pre-formed Aβ 1-42 amyloid fibrils; format: biochemical; conditions: overnight (~18 hours) at 37°C, pH 7.0, mean of triplicate ± standard deviation
Protocol: For the first study, 1 mg of Aβ 1-42 (Bachem Inc., Torrance, CA, USA) was dissolved in 1.0 ml of double distilled water (1 mg/ml solution). 25 µM of Aβ 1-42 was then incubated overnight (~18 hours) at 37°C, in the absence or presence of 100µg/ml of the following compounds: 1) EDTA (Sigma Chemical Company, St. Louis, MO, USA), 2) myricetin (Acros, Somerville, New Jersey, USA), 3) exifone (Acros) 4) pyrogallol (Sigma), 5) tannic acid (Acros), 6) pyrocatechol (Acros), 7) quercetin (Sigma), 8) ellagic acid (Acros), 9) 1,2,4-benzenetriol (Acros), 10) 5-hydroxydopamine (Acros), 11) gallamide hydrate (Acros), 12) gallic acid (Sigma), 13) ethyl gallate (Acros), 14) quinic acid (Acros), 15) propyl gallate (Sigma), and 16) phloroglucide (Acros), each in the presence of 150 mM Tris HCl, 10 mM NaCl (pH 7.0) with 0.02% sodium azide. In this study, the Aβ 1-42:compound weight ratio was 1:1.
For the second study, 1 mg of Aβ 1-42 (Bachem) was dissolved in 1.0 ml of double distilled water (1 mg/ml solution). 25 µM of Aβ 1-42 was then incubated overnight (~18 hours) at 37°C, in the absence or presence of 50µg/ml of the following compounds: 1) gallic acid, 2) ethyl gallate, 3) quinic acid, 4) gallamide trihydrate, 5) ellagic acid, 6) propyl gallate, and 7) pyrogallol, each in the presence of 150 mM Tris HCl, 10 mM NaCl (pH 7.0) with 0.02% sodium azide. In this study, the Aβ 1-42:compound weight ratio was 2:1.
Thioflavin T is known to bind to fibrillar amyloid proteins, and an increase in fluorescence correlates with an increase in amyloid fibril formation, whereas a decrease in fluorescence correlates with a decrease in amyloid fibrils due to disassembly and/or disruption. The Alzheimer's Aβ protein (1-42) when placed in solution, such as distilled water, tends to spontaneously form amyloid fibrils. Using this sensitive assay, any decreases or increases in fluorescence was previously shown to correlate with a decrease or increase in the amount of amyloid fibrils (see the documents cited above), allowing one to identify and quantitate the extent of potential inhibitors and/or enhancers of Alzheimer's Aβ 1-42 amyloid fibrils.
To assess the effects of each compound on potential disassembly/ disruption of preformed Aβ 1-42 fibrils, 50 µl of Aβ 1-42 with or without test compounds (described above) were added to 1.2 ml of 100µM Thioflavin T (Sigma) in 50mM NaH2PO4 (pH 6.0) for fluorometry readings. […] Fluorescence emission at 482 nm was measured on a Turner instrument-model 450 fluorometer at an excitation wavelength of 450 nm. For each determination, the fluorometer was calibrated by zeroing in the presence of the Thioflavin T reagent alone, and by setting the 50 ng/ml riboflavin (Sigma Chemical Co., St. Louis, MO) in the Thioflavin T reagent to 1800 fluorescence units. All fluorescence determinations were based on these references and any fluorescence given off by any of the compounds in the presence of the Thioflavin T reagent was always subtracted from all pertinent readings.
For all fibrillogenesis studies utilizing Thioflavin T fluorometry, as disclosed herein, comparisons of amyloid protein in the presence or absence of test compounds were based on paired Student's t tests with data shown as the mean of triplicate measurements ± standard deviation.

[2] = system: Aβ 1-40 amyloid fibrils; experiment: Modified Congo red-Aβ spectrophotometric assay: dose-dependent disaggregation of fibrillized Aβ 1-40 (overnight incubation); format: biochemical; conditions: overnight (~18 hours) at 37°C
Protocol: In this study, a Congo red-Aβ spectrophotometric assay (Klunk et al., Anal. Biochem. 266:66-76, 1999) was modified to determine the effectiveness of polyhydroxylated aromatic compounds on the disaggregation of pre-formed Aβ 1-40 amyloid fibrils. For this assay, 1 mg of Aβ 1-40 (Bachem) was incubated for 4 days in distilled water at 37°C to spontaneously produce amyloid fibrils. 25pM of fibrillized Aβ 1-40 was then incubated in triplicate with various test compounds for 3 days at 37°C in Tris-buffered saline (TBS)(100 mM Tris; 50 mM NaCl; pH 7.0, with 0.02% sodium azide), at an Aβ:compound weight ratio of 2:1. Following incubation, 50µl of 360 µM Congo red (Sigma) in distilled water was then added to 250 µl of each incubation mixture, giving a final Aβ:Congo red molar ratio of 1:3. After 10 minutes, the absorbance at 405 nm (reference wavelength to account for the absorbance of Congo red alone at 540 nm) and 540 nm (sample absorbance where "sample" refers to Aβ alone, test compound alone, or Aβ plus test compound, all in the presence of Congo red) was determined using a Biorad Model 550 BLISA Plate Reader (Biorad, Hercules, CA, USA). The absorbance at wavelength 405 nm was automatically subtracted by the ELISA plate reader from the absorbance at wavelength 540 nm (difference is referred to as Δ absorbance)(see Klunk et al. cited above). Therefore, the Δ absorbance reading at 540 nm was proportional to the amount of aggregated Aβ left in solution (Klunk et al.).
For all experiments involving test compounds, the Δ absorbance reading at 540 nm of the test compound alone (in the absence of Aβ), was always subtracted from the corresponding Δ absorbance reading at 540 nm of the test compound in the presence of Aβ. Using this modification of the method of Klunk et al., the use of a greater final concentration of Congo red, i.e. 60µM instead of 14µM, in the presence of fibrillar Aβ gave an overall absorbance at 540 nm that was always below 1.0 Absorbance Unit (AU), and well within the linear absorbance range.
In this study, the potential dose-dependent effects of tannic acid and gallic acid on the disaggregation of fibrillized Aβ 1-40 was assessed. In this experiment, the modified Congo red-Aβ spectrophotometric assay (Klunk et al, Anal. Biochem. 266:66-76, 1999) was used as described above (i.e. Example 4). However, in this specific experiment increasing amounts of tannic acid or gallic acid (i.e. 25µg/ml, 50µg/ml, 75µg/ml and 100µg/ml) were tested following an overnight (~18 hours) incubation at 37°C in the presence of 25pM of Aβ 1.40 (Bachem).

[3] = w/w ratio 2:1 (50µg/ml compound)
[4] = w/w ratio 4:1 (25µg/ml compound)
[5] = w/w ratio 4:3 (75µg/ml compound)

O=C(OC[C@H]1O[C@@H](OC(=O)c2cc(O)c(O)c(OC(=O)c3cc(O)c(O)c(O)c3)c2)[C@H](OC(=O)c2cc(O)c(O)c(OC(=O)c3cc(O)c(O)c(O)c3)c2)[C@@H](OC(=O)c2cc(O)c(O)c(OC(=O)c3cc(O)c(O)c(O)c3)c2)[C@@H]1OC(=O)c1cc(O)c(O)c(OC(=O)c2cc(O)c(O)c(O)c2)c1)c1cc(O)c(O)c(OC(=O)c2cc(O)c(O)c(O)c2)c1 [Tannic acid, tannic acid]
Fluorescence inhibition, %, at the Aβ 1-42:compound w/w ratios given ([1]; Aβ 1-42:compound w/w ratio 1:1, 25 µM Aβ 1-42, 100µg/ml compound): 77 ± 1.3%
Decrease in absorbance, %, at the Aβ 1-40:compound w/w ratios given ([2]; w/w ratio 1:1 (100µg/ml compound)): 61 ± 11.1%
Decrease in absorbance, %, at the Aβ 1-40:compound w/w ratios given [2, 3]: 48 ± 6.8%
Decrease in absorbance, %, at the Aβ 1-40:compound w/w ratios given [2, 4]: 42 ± 5.2%
Decrease in absorbance, %, at the Aβ 1-40:compound w/w ratios given [2, 5]: 59 ± 6.4%

O=C(O)c1cc(O)c(O)c(O)c1 [Gallic acid, gallic acid]
Fluorescence inhibition, %, at the Aβ 1-42:compound w/w ratios given ([1]; Aβ 1-42:compound w/w ratio 2:1, 25 µM Aβ 1-42, 50µg/ml compound): 44 ± 1.7%
Decrease in absorbance, %, at the Aβ 1-40:compound w/w ratios given [2, 3]: 22 ± 4.0%
Decrease in absorbance, %, at the Aβ 1-40:compound w/w ratios given [2, 4]: 17 ± 9.5%
Decrease in absorbance, %, at the Aβ 1-40:compound w/w ratios given [2, 5]: 30 ± 6.0%
